Reference: ChEMBL document CHEMBL1130882, “C-alkylated spiro[benzofuran-3(2H),4'-1'-methyl-piperidine-7-ols] as potent opioids: a conformation-activity study” (Bioorg Med Chem Lett, 1998)

What was measured:
Mu-type opioid receptor = Mu-type opioid receptor (Cavia porcellus, UniProt P97266); experiment: Binding affinity against mu opioid receptor was determined in brain membrane preparations from male Hartley guinea-pigs; assay type: cell membranes
[1] = target: Kappa-type opioid receptor (Cavia porcellus, UniProt P41144); experiment: Binding affinity against Opioid receptor kappa 1 was determined in brain membrane preparations from male Hartley guinea-pigs; assay type: cell membranes
Sequence of Kappa-type opioid receptor (P41144 whole entry): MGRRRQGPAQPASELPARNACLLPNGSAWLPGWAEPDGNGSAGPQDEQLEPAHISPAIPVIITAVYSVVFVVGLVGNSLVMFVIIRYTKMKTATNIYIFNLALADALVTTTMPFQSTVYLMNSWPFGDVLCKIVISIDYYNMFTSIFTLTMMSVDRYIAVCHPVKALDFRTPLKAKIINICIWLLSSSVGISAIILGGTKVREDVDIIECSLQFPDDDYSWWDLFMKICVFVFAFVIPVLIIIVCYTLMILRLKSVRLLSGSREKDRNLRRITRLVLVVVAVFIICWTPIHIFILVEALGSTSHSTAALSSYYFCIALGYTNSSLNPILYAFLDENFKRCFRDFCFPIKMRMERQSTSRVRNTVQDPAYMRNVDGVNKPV

Sequence of Mu-type opioid receptor (P97266 whole entry): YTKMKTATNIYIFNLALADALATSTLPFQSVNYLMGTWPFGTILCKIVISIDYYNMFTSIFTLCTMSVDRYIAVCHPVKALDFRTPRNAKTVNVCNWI

Row | Compound | Ki (Mu-type opioid receptor) [nM] | Ki [1] [nM]
1 | CC1CN(C)CCC12COc1c(O)cccc12 (racemic; form 1) | 54 | 177
2 | CCC1Oc2c(O)cccc2C12CCN(C)CC2 (racemic) | 102 | > 100000
3 | CCOC(=O)C1(c2ccccc2)CCN(C)CC1 [MEPERIDINE] | – | > 100000
4 | CN1CCC2(CC1)COc1c(O)cccc12 | 1650 | > 100000
5 | CC1CN(C)CCC12COc1c(O)cccc12 (racemic; form 2) | 1020 | 505
6 | CC1Oc2c(O)cccc2C12CCN(C)CC2 (racemic) | 124 | > 100000
